# In ChEMBL document CHEMBL1133023, “Deoxy sugar analogues of triciribine: correlation of antiviral and antiproliferative activity with intracellular phosphorylation” (J Med Chem, 2000):
# What was measured:
# Assay type in all cases: functional, cell-based
# CEM-SS [1] = experiment: Intracellular phosphorylation (100 uM) in uninfected CEM-SS cells was studied after 24 hrs of Incubation time; Value ranges from 3-5; settings: Homo sapiens
# L1210 = experiment: Tested in vitro for cytotoxicity against murine L1210 leukemic cells; settings: Mus musculus
# HFF [2] = experiment: Tested for visual cytotoxicity on uninfected HFF cells; settings: Homo sapiens
# [3] = Antiviral activity was tested using an enzyme-linked immunosorbent assay (ELISA) to detect HSV-1 (herpes simplex virus type 1) using BSC-1 cells; settings: Cercopithecidae
# HFF [4] = experiment: HCMV plaque assay was performed using HFF cells and effect was calculated as a percentage of reduction in number of plaques; settings: Homo sapiens
# KB = experiment: Inhibition of KB cell growth was assessed; settings: Homo sapiens
# CEM-SS [5] = experiment: Tested for visual cytotoxicity on uninfected CEM-SS cells; settings: Homo sapiens
# CEM-SS [6] = experiment: Intracellular phosphorylation (100 uM) in uninfected CEM-SS cells was studied after 24 hrs of Incubation time; settings: Homo sapiens
Compound,Concentration (CEM-SS [1]) [µM],IC50 (L1210) [µM],IC50 (HFF [2]) [µM],IC50 [3] [µM],IC50 (HFF [4]) [µM],IC50 (KB) [µM],IC50 (CEM-SS [5]) [µM],Concentration (CEM-SS [6]) [µM]
CN1N=C(N)c2cn([C@H]3C=C[C@@H](CO)O3)c3ncnc1c23,< 5,> 100,> 100,> 100,> 100,> 100,> 100,–
CN1N=C(N)c2cn(C3C[C@@H](O)[C@@H](CO)O3)c3ncnc1c23 (some centres not stated),< 5,> 100,> 100,> 100,> 100,> 100,> 100,–
CN1N=C(N)c2cn(C3O[C@H](CO)[C@H]4O[C@H]34)c3ncnc1c23 (some centres not stated),–,–,> 100,65,> 100,> 100,> 100,< 5
C[C@H]1OC(n2cc3c4c(ncnc42)N(C)N=C3N)[C@H](O)[C@@H]1O (some centres not stated),< 5,> 100,> 100,> 100,> 100,> 100,> 100,–
CN1N=C(N)c2cn([C@H]3CC[C@@H](CO)O3)c3ncnc1c23,–,25,> 100,> 100,> 100,> 100,> 100,45
CN1N=C(N)c2cn([C@@H]3O[C@H](CO)C[C@H]3O)c3ncnc1c23,–,2.2,> 100,6,> 100,16,100,276
CN1N=C(N)c2cn([C@@H]3O[C@H](COP(=O)(O)O)[C@@H](O)[C@H]3O)c3ncnc1c23 [TRICIRIBINE PHOSPHATE],–,0.025,19,20,0.8,10,> 1,–
